The source of these data is ChEMBL document CHEMBL5126521, “Analgesic Opioid Ligand Discovery Based on Nonmorphinan Scaffolds Derived from Natural Sources” (J Med Chem, 2022).

The nature of data set [1]: Stability in rat brain homogenate assessed as compound remaining measured after 90 mins relative to control. As to conditions: read-out: Stability. Format: ADME, tissue-based.
Data set [2] concerns the target T1, Mu-type opioid receptor (Homo sapiens, UniProt P35372). Description: Displacement of [3H]DAMGO from MOP (unknown origin) stably expressed in HEK293 cells by liquid scintillation counter analysis. It is filed as cell-based.
The target of data set [3] is T1, Mu-type opioid receptor. The data set is described as follows: Agonist activity at MOP (unknown origin) stably expressed in HEK293 cells assessed as forskolin stimulated cAMP accumulation incubated for 30 mins by radioactivity based scintillation counter analysis relative to control. Particulars: filed as agonist. Format: functional, cell-based.
Data set [4] addresses T1, Mu-type opioid receptor. The data set is described as follows: Agonist activity at MOP (unknown origin) stably expressed in HEK293 cells assessed as forskolin stimulated cAMP accumulation incubated for 30 mins by radioactivity based scintillation counter analysis. Format: functional, cell-based.
Data set [5] deals with T2, Delta-type opioid receptor (Homo sapiens, UniProt P41143). Description: Displacement of [3H]DPDPE from DOP (unknown origin) stably expressed in HEK293 cells by liquid scintillation counter analysis. It is filed as cell-based.
T2 sequence (P41143 whole entry): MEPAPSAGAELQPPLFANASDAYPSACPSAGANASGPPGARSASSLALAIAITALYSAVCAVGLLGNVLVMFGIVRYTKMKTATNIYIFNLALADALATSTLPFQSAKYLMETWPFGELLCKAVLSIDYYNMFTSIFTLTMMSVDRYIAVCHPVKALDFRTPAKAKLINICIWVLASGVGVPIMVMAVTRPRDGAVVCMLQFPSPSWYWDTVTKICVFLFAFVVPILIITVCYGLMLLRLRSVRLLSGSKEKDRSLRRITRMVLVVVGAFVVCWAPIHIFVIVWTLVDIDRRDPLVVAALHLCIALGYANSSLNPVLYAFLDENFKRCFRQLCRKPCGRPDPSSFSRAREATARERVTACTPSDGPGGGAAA
Data set [6] in a line: Stability in mouse serum assessed as half life. It is filed as ADME, cell-free.
The nature of data set [7]: Stability in mouse brain homogenate assessed as half life. Format: ADME, tissue-based.
The test system of data set [8] is Mus musculus. Description: Antinociceptive activity in Swiss albino mouse assessed tail flick response in warm water administered icv. It is filed as functional.
Data set [9] deals with Mu-type opioid receptor (Rattus norvegicus, UniProt P33535). The data set is described as follows: Inhibition of Wistar rat brain membrane MOP. It is filed as cell membranes.
Mu-type opioid receptor (Rattus norvegicus, UniProt P33535), sequence (P33535 whole entry): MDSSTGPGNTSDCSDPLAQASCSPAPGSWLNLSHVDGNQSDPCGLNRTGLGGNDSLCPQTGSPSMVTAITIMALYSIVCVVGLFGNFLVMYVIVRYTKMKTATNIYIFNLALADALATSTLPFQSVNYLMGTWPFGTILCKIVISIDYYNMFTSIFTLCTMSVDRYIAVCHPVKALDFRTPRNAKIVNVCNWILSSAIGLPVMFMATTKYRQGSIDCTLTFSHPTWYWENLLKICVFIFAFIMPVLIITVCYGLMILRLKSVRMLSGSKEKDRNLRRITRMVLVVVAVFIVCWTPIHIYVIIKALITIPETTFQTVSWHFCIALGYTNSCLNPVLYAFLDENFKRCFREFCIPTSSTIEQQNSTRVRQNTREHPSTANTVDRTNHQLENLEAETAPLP
Data set [10] deals with Delta-type opioid receptor (Rattus norvegicus, UniProt P33533). Description: Inhibition of Wistar rat brain membrane DOP. Format: cell membranes.
Delta-type opioid receptor (Rattus norvegicus, UniProt P33533), sequence (P33533 whole entry): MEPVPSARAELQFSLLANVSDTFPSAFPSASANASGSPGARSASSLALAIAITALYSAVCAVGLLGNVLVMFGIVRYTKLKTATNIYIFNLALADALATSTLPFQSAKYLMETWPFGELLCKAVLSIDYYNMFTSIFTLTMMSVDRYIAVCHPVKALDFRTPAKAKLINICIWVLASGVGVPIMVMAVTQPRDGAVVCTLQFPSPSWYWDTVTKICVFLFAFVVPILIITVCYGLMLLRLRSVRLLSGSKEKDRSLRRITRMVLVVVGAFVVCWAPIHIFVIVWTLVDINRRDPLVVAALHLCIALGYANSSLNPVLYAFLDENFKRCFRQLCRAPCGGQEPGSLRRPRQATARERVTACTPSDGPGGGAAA
The target in data set [11] is T1, Mu-type opioid receptor. Description: Agonist activity at human recombinant MOP expressed in CHO cells by calcium mobilization assay. It is filed as functional, cell-based.
In data set [12] the target is T2, Delta-type opioid receptor. The data set is described as follows: Binding affinity to DOP (unknown origin).
The target in data set [13] is T1, Mu-type opioid receptor. The data set is described as follows: Binding affinity to MOP (unknown origin).

Bridge positions count the residues as written; N and C are the ends. Square brackets hold non-standard residues; d marks the D form. Peptide text beside a SMILES is read from it. Bounds are passed on as bounds.

T1 sequence (P35372 whole entry): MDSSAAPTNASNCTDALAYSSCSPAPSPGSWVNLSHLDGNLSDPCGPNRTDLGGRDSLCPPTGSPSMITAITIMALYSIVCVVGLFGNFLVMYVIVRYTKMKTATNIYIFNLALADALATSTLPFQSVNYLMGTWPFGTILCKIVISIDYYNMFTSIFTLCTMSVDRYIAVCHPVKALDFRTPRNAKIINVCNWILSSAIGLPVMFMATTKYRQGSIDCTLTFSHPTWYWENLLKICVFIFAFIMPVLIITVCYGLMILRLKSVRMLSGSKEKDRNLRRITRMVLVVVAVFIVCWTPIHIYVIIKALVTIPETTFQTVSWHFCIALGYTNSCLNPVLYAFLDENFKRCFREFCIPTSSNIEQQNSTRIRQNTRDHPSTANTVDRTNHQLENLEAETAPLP

Take `NC(=O)[C@@H]1CC(=O)NCCCC[C@@H](NC(=O)[C@@H](N)Cc2ccc(O)cc2)C(=O)N[C@@H](c2ccc(F)cc2F)C(=O)N[C@@H](c2ccccc2)C(=O)N1`: the remaining at […] in [1] stood at 93%.
On the same count and under the same terms, in the case of `Cc1cc(O)cc(C)c1C[C@H](N)C(=O)N[C@@H]1CCCCNC(=O)C[C@@H](C(N)=O)NC(=O)[C@H](c2ccc(F)cc2F)NC(=O)[C@H](c2ccccc2)NC1=O` it was 93%; in that of `NC(=O)[C@@H]1CC(=O)NCCCC[C@@H](NC(=O)[C@@H](N)Cc2ccc(O)cc2)C(=O)N[C@@H](c2ccc(F)cc2)C(=O)N[C@@H](c2ccccc2)C(=O)N1`, 93%.
On to `C=C(C(N)=O)[C@@H](NC(=O)[C@H](Cc1c[nH]c2ccccc12)NC(=O)[C@@H](C)N(C)C(=O)[C@@H](N)Cc1ccc(O)cc1)c1ccccc1`, for which the Ki in data set [2] turned out to be 0.58 nM; in data set [5], 3.99 µM. Further, the Emax in data set [3] stood at 88.3%. The concentration for a half-maximal effect (EC50) in [4] was determined as 2.27 nM.
On to `Cc1cc(O)cc(C)c1C[C@H](N)C(=O)N[C@@H]1CCCCNC(=O)C[C@@H](C(N)=O)NC(=O)[C@H](c2ccccc2)NC(=O)[C@H](c2ccc(F)cc2)NC1=O`, for which the remaining at […] in [1] came out at 93%.
As to `C=C(C(=O)O)[C@@H](N)c1ccco1`, the half-life in data set [6] and in [7] was ≥ 300 min in each case.
In the case of `Cc1cccc([C@@H]2NC(=O)[C@H](c3ccccc3)NC(=O)[C@H](NC(=O)[C@@H](N)Cc3c(C)cc(O)cc3C)CCCCNC(=O)C[C@@H](C(N)=O)NC2=O)c1`, the ED50 in data set [8] turned out to be 0.01 µg. For the same compound, the half-inhibitory concentration (IC50) in data set [9] came out at 0.08 nM; in data set [10], 18.6 nM. The EC50 in data set [11] is 1.1 nM. Moreover, the remaining at […] in [1] came out at 85%.
The corresponding values for `Cc1cccc([C@@H]2NC(=O)[C@H](NC(=O)[C@@H](N)Cc3c(C)cc(O)cc3C)CCCCNC(=O)C[C@@H](C(N)=O)NC(=O)[C@H](c3ccccc3)NC2=O)c1` are 0.22 µg, 0.8 nM, 116 nM, 2.95 nM and 85%.
Consider `NC(=O)[C@@H]1CC(=O)NCCCC[C@@H](NC(=O)[C@@H](N)Cc2ccc(O)cc2)C(=O)N[C@@H](c2ccccc2)C(=O)N[C@@H](c2ccc(F)cc2)C(=O)N1`, for which, in data set [1], the remaining at […] was 93%.
Same read-out and setting: in the case of `Cc1cc(O)cc(C)c1C[C@H](N)C(=O)N[C@@H]1CCCCNC(=O)C[C@@H](C(N)=O)NC(=O)[C@H](c2ccccc2)NC(=O)[C@H](c2ccc(F)cc2F)NC1=O` it was 93%; in that of `Cc1cc(O)cc(C)c1C[C@H](N)C(=O)N[C@@H]1CCCCNC(=O)C[C@@H](C(N)=O)NC(=O)[C@H](c2ccccc2)NC(=O)[C@H](c2ccc(C(F)(F)F)cc2)NC1=O`, 93%.
As for `C=C(C(N)=O)[C@@H](NC(=O)[C@H](Cc1c[nH]c2ccccc12)NC(=O)[C@@H](C)N(C)C(=O)[C@@H](N)Cc1ccc(O)cc1)c1ccco1`, the Ki was determined as 0.3 nM in data set [2] and 3.1 µM in [5]. Besides, the Emax in data set [3] was found to be 90.6%. Further, the EC50 in data set [4] was determined as 1.45 nM.
For the compound `C=C(C(=O)O)[C@@H](N)c1ccccc1`, the half-life in data set [6] and in [7] was ≥ 300 min in each case.
Take `NC(=O)[C@@H]1CC(=O)NCCCC[C@@H](NC(=O)[C@@H](N)Cc2ccc(O)cc2)C(=O)N[C@@H](c2ccccc2)C(=O)N[C@@H](c2ccc(C(F)(F)F)cc2)C(=O)N1`: the remaining at […] in [1] came out at 93%.
Take `C=C(C(N)=O)[C@@H](NC(=O)[C@H](Cc1ccccc1)NC(=O)[C@@H](C)N(C)C(=O)[C@@H](N)Cc1ccc(O)cc1)c1ccco1`: the Ki is 0.45 nM in data set [2] and 4.51 µM in [5]. Further, the Emax in data set [3] turned out to be 87.7%. The concentration for a half-maximal effect (EC50) in data set [4] came out at 4.11 nM.
Consider `C=C(C(N)=O)[C@@H](NC(=O)[C@H](Cc1ccccc1)NC(=O)[C@@H](C)N(C)C(=O)[C@@H](N)Cc1ccc(O)cc1)c1ccccc1`, for which the Ki in [2] is 0.61 nM; in data set [5], 4.28 µM. Besides, in [3], the Emax was determined as 80.4%. Besides, the EC50 in [4] was 4.39 nM.
Consider `Cc1ccccc1[C@@H]1NC(=O)[C@H](NC(=O)[C@@H](N)Cc2c(C)cc(O)cc2C)CCCCNC(=O)C[C@@H](C(N)=O)NC(=O)[C@H](c2ccccc2)NC1=O`, for which, in [8], the ED50 was determined as 0.03 µg. Also, the results for the IC50 in data set [9] and in data set [10] were 1.09 nM and 198 nM, respectively. The EC50 in [11] came to 5.62 nM. The remaining at […] in data set [1] was determined as 85%.
As to `Cc1cc(O)cc(C)c1C[C@H](N)C(=O)N[C@@H]1CCCCNC(=O)C[C@@H](C(N)=O)NC(=O)[C@H](c2ccc(F)cc2)NC(=O)[C@H](c2ccccc2)NC1=O`, the remaining at […] in data set [1] was 93%.
`Cc1cc(O)cc(C)c1C[C@H](N)C(=O)O`: the half-life in [6] and in data set [7] was ≥ 300 min each time.
`Cc1cc(O)cc(C)c1C[C@H](N)C(=O)N[C@@H]1CCCCNC(=O)C[C@@H](C(N)=O)NC(=O)[C@H](c2ccccc2)NC(=O)[C@H](c2ccccc2)NC1=O`: the ED50 in data set [8] stood at 0.02 µg. For the same compound, the IC50 worked out at 0.26 nM in data set [9] and 400 nM in data set [10]. Moreover, in [11], the EC50 amounted to 1.73 nM. Moreover, the remaining at […] in [1] was found to be 85%.
For `Cc1ccc([C@@H]2NC(=O)[C@H](c3ccccc3)NC(=O)[C@H](NC(=O)[C@@H](N)Cc3c(C)cc(O)cc3C)CCCCNC(=O)C[C@@H](C(N)=O)NC2=O)cc1` the same measures were 0.006 µg, 0.02 nM, 14.9 nM, 7.76 nM and 85%.
For `N[C@@H](Cc1ccc(O)cc1)C(=O)N[C@@H]1CCCCNC(=O)[C@H](Cc2ccccc2)NC(=O)[C@H](Cc2c[nH]c3ccccc23)NC1=O` (H-Y[dK]WF; lactam 2-C), the results for the Ki in data set [12] and in data set [13] were 38 nM and 0.25 nM, respectively.
With `Cc1ccccc1[C@@H]1NC(=O)[C@H](c2ccccc2)NC(=O)[C@H](NC(=O)[C@@H](N)Cc2c(C)cc(O)cc2C)CCCCNC(=O)C[C@@H](C(N)=O)NC1=O`, the ED50 in data set [8] came to 0.05 µg. The IC50 in data set [9] was determined as 0.04 nM; in data set [10] it was 2.05 nM. Besides, the EC50 in [11] turned out to be 5.62 nM. In addition, the remaining at […] in data set [1] was 85%.
For `Cc1ccc([C@@H]2NC(=O)[C@H](NC(=O)[C@@H](N)Cc3c(C)cc(O)cc3C)CCCCNC(=O)C[C@@H](C(N)=O)NC(=O)[C@H](c3ccccc3)NC2=O)cc1` the same measures were 0.39 µg, 1.43 nM, 156 nM, 2.82 nM and 85%.
Regarding `Cc1cc(O)cc(C)c1C[C@H](N)C(=O)N[C@@H]1CCCCNC(=O)C[C@@H](C(N)=O)NC(=O)[C@H](c2ccc(C(F)(F)F)cc2)NC(=O)[C@H](c2ccccc2)NC1=O`, the remaining at […] in [1] is 93%.
Same read-out and setting: in the case of `NC(=O)[C@@H]1CC(=O)NCCCC[C@@H](NC(=O)[C@@H](N)Cc2ccc(O)cc2)C(=O)N[C@@H](c2ccc(C(F)(F)F)cc2)C(=O)N[C@@H](c2ccccc2)C(=O)N1` it was 93%; in that of `NC(=O)[C@@H]1CC(=O)NCCCC[C@@H](NC(=O)[C@@H](N)Cc2ccc(O)cc2)C(=O)N[C@@H](c2ccccc2)C(=O)N[C@@H](c2ccc(F)cc2F)C(=O)N1`, 93%.
For the compound `CN[C@H](C)C(=O)O`, the half-life in data set [6] and in [7] was ≥ 300 min in each case.
